# Measurements reported in patent publication US20130060020A1, “Compounds useful for treating neurodegenerative disorders” (Satori Pharmaceuticals, Inc., priority 2011, published 2013).
# Like-named read-outs stand apart in the source and are kept apart here.
# Columns and labels:
# Type in all cases: cell-based
# [1] = system: Aβ-38; assay: Aβ-38 MSD 3-plex ELISA, conditioned media of 2B7 cells; details: Homo sapiens, 5 hours treatment
# Procedure, shortened: (§1)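 Confluent 2B7 cells treated 5 h at 37 °C with compound in media containing 1% DMSO. Conditioned media diluted 1:1 in blocking buffer and assayed on 6E10 Aβ 3-plex MSD plates against standard curves. Percent-vehicle values fitted to dose-response curves to give IC50.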
# [2] = system: Aβ-42; assay: Aβ-42 MSD 3-plex ELISA, conditioned media of 2B7 cells; details: Homo sapiens, 5 hours treatment
# Procedure, shortened: as §1
# [3] = system: Notch processing (NICD); assay: Notch assay: NICD appearance in SUP-T1 cells (western blot); details: 18 hours; for Notch % inhib: Notch inhib conc class D (1001-5000 nM)
# Experimental: The methods for this assay are broken up into two parts. 1) Growing, dosing and lysing cells 2) Measuring Notch processing (NICD appearance) and data manipulation. Cell viability is also described (CTG). SUP-T1 cells were cultured in T75 flasks in RPMI media (Mediatech 10-041-CV) supplemented with 10% FBS and penicillin/streptomycin at 37° C. in a 5% CO2 atmosphere. One hour prior to drug treatment six well plates were seeded with 1.5 mL of media with cells at a density of 1.0×10^6 cells/mL. The DMSO serial dilutions were diluted 100 fold directly into the media with the cells and incubated for 18 hours at 37° C. After treatment 100 μL of treated cells were assayed for viability with the Promega Cell Titer Glo assay system. […] Lysates were spun at 5,000 RPM for 5 minutes and supernatants were collected and analyzed for NICD levels. […] To account for loading discrepancies each NICD band was normalized to the alpha tubulin band in that well. These values were then normalized to vehicle levels and used to plot a dose response curve. IC50 values were obtained from the dose response curves using a four parameter fit method available within Prism's GraphPad graphing suite. Luminescent data from Promega's Cell Titre Glo assay system were normalized to vehicle controls and plotted with NICD levels.
# [4] = system: Aβ-40; assay: Aβ-40 MSD 3-plex ELISA, conditioned media of 2B7 cells; details: Homo sapiens, 5 hours treatment
# Procedure, shortened: as §1
# [5] = inflection of dose response curve, read-out: Aβ 42 DR IC50 Inflection
# [6] = inflection of dose response curve, read-out: Aβ 40 DR IC50 Inflection
Compound,IC50 ([1]; read-out: Aβ 38 IC50),"IC50 [2, 5]",IC50 ([2]; read-out: Aβ 42 IC50),"inhibition at 5 µM ([3]; Homo sapiens, Notch inhib conc class E (>5000 nM))",IC50 ([4]; read-out: Aβ 40 IC50),"IC50 ([1]; inflection of dose response curve, read-out: Aβ 38 DR IC50 Inflection)",Notch % inhib [3],"IC50 [4, 6]"
CCO[C@@H]([C@H]1C[C@@H](C)[C@H]2[C@H](O1)[C@H](O)[C@@]1(C)[C@@H]3CC[C@H]4C(C)(C)[C@@H](O[C@H]5CN(CCN6CCOCC6)CCO5)CC[C@@]45C[C@@]35CC[C@]21C)C(C)(C)O [Compound I-58],501 to 1000 nM,100 to 500 nM,100 to 500 nM,26 to 50%,> 5000 nM,,,
CCO[C@@H]([C@H]1C[C@@H](C)[C@H]2[C@H](O1)[C@H](O)[C@@]1(C)[C@@H]3CC[C@H]4C(C)(C)[C@@H](O[C@H]5CN(CCNCCOC)CCO5)CC[C@@]45C[C@@]35CC[C@]21C)C(C)(C)O [Compound I-60],100 to 500 nM,100 to 500 nM,100 to 500 nM,,1000 to 5000 nM,100 to 500 nM,A (A is range from 0-25%),1000 to 5000 nM
CCO[C@@H]([C@H]1C[C@@H](C)[C@H]2[C@H](O1)[C@H](O)[C@@]1(C)[C@@H]3CC[C@H]4C(C)(C)[C@@H](O[C@H]5CN(CCN(C)CCOC)CCO5)CC[C@@]45C[C@@]35CC[C@]21C)C(C)(C)O [Compound I-61],501 to 1000 nM,100 to 500 nM,100 to 500 nM,,1000 to 5000 nM,,A (A is range from 0-25%),1000 to 5000 nM
